From patent publication US12378248B2 (The United States of America, as represented by the …, priority 2018, dated 2025)
Where two headings read alike, the source gives them in different places.

What was measured:
wild-type C57BL/6J mice [1] = assay: Hypothermia (Tb by telemetry) after ip dosing; assay type: in vivo, mouse; conditions: average from dosing to 60 min, mean±SD
Procedure: (§1) Compounds were dosed ip. Tb and activity were measured by telemetry and the averages from dosing to 60 min were calculated. […] Data are for the highest dose used and are mean±SD from 3 to 22 mice/group (usually 5-7). P values are unpaired t-Test vs vehicle-treated controls assayed simultaneously. Vehicle data are mean±SD from all (n=83) vehicle treated mice.

mA1AR = target: T1, mA1AR (Mus musculus, UniProt Q60612); assay: Adenosine receptor binding, mA1AR
T1 sequence (Q60612 1-326): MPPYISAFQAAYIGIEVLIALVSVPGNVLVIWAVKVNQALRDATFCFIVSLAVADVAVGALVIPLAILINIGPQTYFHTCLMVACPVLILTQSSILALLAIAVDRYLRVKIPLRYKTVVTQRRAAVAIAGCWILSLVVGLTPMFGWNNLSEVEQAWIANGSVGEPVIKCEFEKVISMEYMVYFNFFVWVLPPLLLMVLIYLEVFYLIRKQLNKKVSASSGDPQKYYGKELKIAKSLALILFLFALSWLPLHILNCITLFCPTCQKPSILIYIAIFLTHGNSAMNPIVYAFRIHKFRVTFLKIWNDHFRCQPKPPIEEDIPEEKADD

wild-type C57BL/6J mice [2] = assay: Locomotor activity by telemetry after ip dosing; assay type: in vivo, mouse; conditions: average from dosing to 60 min, mean±SD
Procedure: as §1

mA3AR = target: T2, mA3AR (Mus musculus, UniProt Q61618); assay: Adenosine receptor binding, mA3AR; conditions: (m); Ki; read-out: A3AR % inhibition or Ki (converted)
T2 sequence (Q61618 1-319): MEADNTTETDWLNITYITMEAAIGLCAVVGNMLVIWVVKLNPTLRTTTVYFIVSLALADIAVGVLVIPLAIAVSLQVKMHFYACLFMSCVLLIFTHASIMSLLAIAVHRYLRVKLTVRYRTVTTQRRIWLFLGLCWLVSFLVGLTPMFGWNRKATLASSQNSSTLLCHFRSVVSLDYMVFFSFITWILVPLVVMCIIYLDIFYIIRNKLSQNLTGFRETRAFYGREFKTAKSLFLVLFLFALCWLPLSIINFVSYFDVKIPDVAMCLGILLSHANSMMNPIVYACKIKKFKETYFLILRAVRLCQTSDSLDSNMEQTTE

sigma receptor σ1 = sigma receptor σ1 (Homo sapiens, UniProt Q99720); assay: Off-target interaction determined by the PDSP; assay type: binding; conditions: read-out: Off-target, receptor (h, unless noted) (Ki, μM): σ1
hA2AAR = target: T3, hA2AAR (Homo sapiens, UniProt P29274); assay: Radioligand binding in membranes of HEK293 cells expressing hA2AAR; conditions: read-out: A2AAR % inhibition; for Ki: (h), values without % sign (Ki)
T3 construct: expressed in transfected cells; host or cells: HEK293

serotonin receptor 5HT2B = serotonin receptor 5HT2B (Homo sapiens, UniProt P41595); assay: Off-target interaction determined by the PDSP; assay type: binding; conditions: read-out: Off-target, receptor (h, unless noted) (Ki, μM): 5HT2B
hA1AR = target: T4, hA1AR (Homo sapiens, UniProt P30542); assay: Radioligand binding in membranes of CHO cells expressing hA1AR, [3H]N6-R-phenylisopropyladenosine; conditions: read-out: A1AR % inhibition or Ki; for Ki: (h)
T4 construct: expressed in transfected cells; host or cells: CHO
T4 sequence (P30542 1-326): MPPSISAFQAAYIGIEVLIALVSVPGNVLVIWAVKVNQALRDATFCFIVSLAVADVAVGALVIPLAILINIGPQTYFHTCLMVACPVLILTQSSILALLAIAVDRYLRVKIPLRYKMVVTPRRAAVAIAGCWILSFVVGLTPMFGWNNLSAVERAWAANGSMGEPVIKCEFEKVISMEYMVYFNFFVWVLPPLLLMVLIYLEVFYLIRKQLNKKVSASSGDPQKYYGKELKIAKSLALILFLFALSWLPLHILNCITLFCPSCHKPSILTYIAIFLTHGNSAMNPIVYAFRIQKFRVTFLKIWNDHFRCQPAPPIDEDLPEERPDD

hA3AR = target: T5, hA3AR (Homo sapiens, UniProt P0DMS8); assay: Radioligand binding in membranes of CHO cells expressing hA3AR; conditions: read-out: A3AR % inhibition or Ki; for Ki: (h)
T5 construct: expressed in transfected cells; host or cells: CHO
T5 sequence (P0DMS8 1-318): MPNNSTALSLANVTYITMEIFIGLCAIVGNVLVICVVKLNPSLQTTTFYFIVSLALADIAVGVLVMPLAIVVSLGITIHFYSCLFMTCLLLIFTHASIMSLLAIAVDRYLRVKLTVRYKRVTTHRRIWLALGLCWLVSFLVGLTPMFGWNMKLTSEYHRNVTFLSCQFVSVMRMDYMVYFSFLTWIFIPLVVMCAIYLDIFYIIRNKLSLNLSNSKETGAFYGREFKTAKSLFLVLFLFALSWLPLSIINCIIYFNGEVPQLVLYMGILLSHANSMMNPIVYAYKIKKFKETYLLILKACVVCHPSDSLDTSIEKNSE

sigma receptor σ2 = sigma receptor σ2 (UniProt Q5BJF2); assay: Off-target interaction determined by the PDSP; assay type: binding, human; conditions: read-out: Off-target, receptor (h, unless noted) (Ki, μM): σ2
[3] = target: TSPO (translocator protein) (UniProt P30536); assay: Off-target interaction determined by the PDSP; assay type: binding, human
serotonin receptor 5HT2C = target: T6, serotonin receptor 5HT2C (Homo sapiens, UniProt P28335); assay: Off-target interaction determined by the PDSP; assay type: binding; conditions: read-out: Off-target, receptor (h, unless noted) (Ki, μM): 5HT2C
T6 sequence (P28335 33-458): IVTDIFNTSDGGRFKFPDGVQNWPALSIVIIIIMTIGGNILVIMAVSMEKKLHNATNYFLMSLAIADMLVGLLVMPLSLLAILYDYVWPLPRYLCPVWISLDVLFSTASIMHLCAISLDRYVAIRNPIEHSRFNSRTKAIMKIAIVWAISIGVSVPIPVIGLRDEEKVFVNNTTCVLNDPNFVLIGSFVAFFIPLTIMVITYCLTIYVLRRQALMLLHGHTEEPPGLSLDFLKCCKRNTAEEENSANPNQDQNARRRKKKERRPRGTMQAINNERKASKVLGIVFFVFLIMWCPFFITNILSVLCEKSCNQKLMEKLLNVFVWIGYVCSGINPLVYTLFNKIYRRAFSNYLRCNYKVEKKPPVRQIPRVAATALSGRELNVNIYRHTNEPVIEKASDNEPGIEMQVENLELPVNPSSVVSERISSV

[4] = system: off-target receptors (PDSP); assay: Off-target interactions determined by the PDSP, whole screen; assay type: binding, human; conditions: no off-target interaction listed
[5] = (m), Ki, read-out: A1AR % inhibition or Ki (converted)

T3 sequence (P29274 whole entry): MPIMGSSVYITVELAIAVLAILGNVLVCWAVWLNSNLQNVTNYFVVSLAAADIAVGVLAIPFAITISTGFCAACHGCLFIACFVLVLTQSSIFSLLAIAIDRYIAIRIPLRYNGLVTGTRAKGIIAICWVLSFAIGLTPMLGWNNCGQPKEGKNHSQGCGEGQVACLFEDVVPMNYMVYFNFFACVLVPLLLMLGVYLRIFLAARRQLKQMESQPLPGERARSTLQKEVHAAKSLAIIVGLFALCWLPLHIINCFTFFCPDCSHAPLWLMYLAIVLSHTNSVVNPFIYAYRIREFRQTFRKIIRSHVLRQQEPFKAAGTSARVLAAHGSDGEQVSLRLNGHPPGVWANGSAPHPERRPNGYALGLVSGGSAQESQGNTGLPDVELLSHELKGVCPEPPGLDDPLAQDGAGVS
sigma receptor σ1, sequence (Q99720 whole entry): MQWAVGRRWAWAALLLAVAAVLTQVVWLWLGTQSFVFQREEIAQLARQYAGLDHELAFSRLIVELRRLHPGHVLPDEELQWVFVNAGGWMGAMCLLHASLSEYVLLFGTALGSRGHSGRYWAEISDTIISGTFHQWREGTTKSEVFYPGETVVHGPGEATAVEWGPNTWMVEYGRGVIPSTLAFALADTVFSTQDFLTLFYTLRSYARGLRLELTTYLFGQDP
serotonin receptor 5HT2B, sequence (P41595 whole entry): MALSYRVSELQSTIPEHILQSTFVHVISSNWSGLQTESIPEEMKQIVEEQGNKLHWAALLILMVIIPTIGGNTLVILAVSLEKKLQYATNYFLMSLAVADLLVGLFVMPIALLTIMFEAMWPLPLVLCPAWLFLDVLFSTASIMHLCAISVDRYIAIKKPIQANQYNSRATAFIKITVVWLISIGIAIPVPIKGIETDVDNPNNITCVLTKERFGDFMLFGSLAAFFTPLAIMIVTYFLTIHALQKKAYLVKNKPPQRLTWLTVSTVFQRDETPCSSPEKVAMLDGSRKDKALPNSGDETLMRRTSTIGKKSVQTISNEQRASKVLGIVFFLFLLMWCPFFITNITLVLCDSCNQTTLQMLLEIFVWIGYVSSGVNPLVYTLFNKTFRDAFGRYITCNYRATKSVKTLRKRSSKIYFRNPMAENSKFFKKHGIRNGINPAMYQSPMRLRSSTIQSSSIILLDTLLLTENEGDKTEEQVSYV

Structure (SMILES) | Ki (mA1AR; [5]) [nM] | Ki (mA3AR) [nM] | Ki (sigma receptor σ1) [µM] | Ki (hA2AAR) [nM] | Ki (hA1AR) [nM] | Ki (hA3AR) [nM] | Ki (sigma receptor σ2) [µM] | other results
O[C@@H]1[C@H](O)[C@@H](CCl)O[C@H]1n1cnc2c(NC3CC4CCC3C4)ncnc21 (stereo partly shown) [Compound 4, reference compound] | 0.2 | 2410 | – | – | – | – | – | Tb (° C.) (wild-type C57BL/6J mice [1]; 3 mg/kg ip): 32.2 ± 1.3 °C; Activity (counts) (wild-type C57BL/6J mice [2]; 3 mg/kg ip): 2.8 ± 1.6 counts
CNC(=O)[C@@]12C[C@@H]1[C@@H](n1cnc3c(NC4CCCC4)nc(Cl)nc31)[C@H](O)[C@@H]2O [Compound 6e, reference compound] | 0.68 | 3.46 ± 0.13 | 1.55 | 3250 ± 300 | 18.3 ± 6.3 | 3.7 ± 0.9 | – | Ki (serotonin receptor 5HT2B): 0.012 µM
O[C@@H]1[C@H](O)[C@@H]2C[C@@H]2[C@H]1n1cnc2c(NC(C3CC3)C3CC3)nc(Cl)nc21 [Compound 7, reference compound] | – | – | – | – | – | – | – | Tb (° C.) (wild-type C57BL/6J mice [1]; 3 mg/kg ip): 33.4 ± 1.7 °C; Activity (counts) (wild-type C57BL/6J mice [2]; 3 mg/kg ip): 5.5 ± 4.1 counts
O[C@@H]1[C@H](O)[C@@H](CCl)O[C@H]1n1cnc2c(NC(C3CCC3)C3CCC3)ncnc21 [Compound 10, (2S,3S,4R,5R)-2-(Chloromethyl)-5-(6-((dicyclobutylmethyl)amino)-9H-purin-9-yl)tetrahydrofuran-3,4-diol] | 0.71 | 2110 | 0.69 | 5200 | 4.9 ± 0.87 | 16600 | 0.662 | Tb (° C.) (wild-type C57BL/6J mice [1]; 10 mg/kg ip): 35.8 ± 0.1 °C; Activity (counts) (wild-type C57BL/6J mice [2]; 10 mg/kg ip): 20.5 ± 4.6 counts; Ki ([3]; read-out: Off-target, receptor (h, unless noted) (Ki, μM): TSPO): 3.98 µM
CCSC[C@H]1O[C@@H](n2cnc3c(NC(C4CCC4)C4CCC4)ncnc32)[C@H](O)[C@@H]1O [Compound 11, (2R,3R,4S,5S)-2-(6-((Dicyclobutylmethyl)amino)-9H-purin-9-yl)-5-((ethylthio)methyl)tetrahydrofuran-3,4-diol] | 3.58 | 718 | 0.626 | – | 63.4 ± 12.1 | 6220 ± 1480 | 0.642 | inhibition at 10 µM (hA2AAR): 30 ± 5%; Off-target: TSPO (% inhib.) ([3]; footnote j not given): 90%
OC[C@H]1O[C@@H](n2cnc3c(NC(C4CCC4)C4CCC4)nc(Cl)nc32)[C@H](O)[C@@H]1O [Compound 12, (2R,3R,4R,5R)-2-(2-Chloro-6-((dicyclobutylmethyl)amino)-9H-purin-9-yl)-5-(hydroxymethyl)tetrahydrofuran-3,4-diol] | – | 653 | – | 2550 ± 540 | 17.8 ± 8.7 | 13200 | – | Ki (mA1AR; Table 7, repeats the binding tables, read-out: Binding Ki for mA1AR): 0.65 nM; Ki (serotonin receptor 5HT2C): 1.45 µM
Nc1ncnc2c1ncn2[C@@H]1O[C@H](C(=O)O)[C@@H](O)[C@H]1O [Compound 14] | – | – | 1.48 | – | – | – | 0.796 | inhibition at 10 µM (hA2AAR): 11 ± 4%; inhibition at 10 µM (hA1AR): 24 ± 4%; inhibition at 10 µM (hA3AR): 32%
CCNC(=O)[C@H]1O[C@@H](n2cnc3c(N)ncnc32)[C@H](O)[C@@H]1O [Compound 16, reference compound] | – | – | – | – | – | – | – | Off-target, receptor (h, unless noted) [4]: none
